Earlier results, collected in patent US20090131498A1, “Enantioselective Synthesis of Merrilactone and Its Analogs” (priority 2005, published 2009).

Tested on: neurite growth
Settings: described by Fukuyama et al. (ref. 3)

## C[C@@]12COC(=O)[C@]1(C)C1O[C@]3(C)[C@@H](O)C[C@]24OC(=O)C[C@]143 (stereo partly shown) [merrilactone A, Merrilactone A]
  activity in a neurite growth assay: promising activity
